Experimental data published in patent US20040219238A1, “Remedies” (priority 2001, published 2004).
Marks after values point to notes of the source that are not given here.

Assays:
[1] = assay type: in vivo; conditions: mouse, 1 g/kg in a single dose
Protocol: No toxicity is found even when the above-mentioned effective ingredient usable in the present invention is administered in an amount effective for the exhibition of its action.

[2] = tested on: NGF; experiment: NGF content in rat tissues after forced oral administration of xanthohumol (enzyme immunoassay); assay type: in vivo, rat (SD); conditions: excised on fifth day, average ± standard error, n=4
Protocol: (§1) (2) Male SD rats were purchased from Japan SLC, Inc., and used for an experiment from 7-week old after preliminary rearing. Xanthohumol described in Example 1 was suspended in distilled water, and the rats were subjected to forced oral administration of the suspension at a ratio of 3 and 10 mg of xanthohumol respectively per 1 kg of body weight. In addition, the suspension was intraperitoneally administered at a ratio of 1, 3 or 10 mg of xanthohumol. A control group was administered with distilled water in the same manner as above. In either group, four rats were administered once a day for consecutive days. In the case of the forced oral administration, the submandibular gland and the brain were excised on the fifth day from the beginning of administration. In the case of the intraperitoneal administration, ischiadic nerve and gastrocneminal muscle were excised at 4 hours after the end of administration on the third day. The excised tissues were homogenized and centrifuged, and the NGF contents in the supematant were determined by enzyme immunoassay method (manufactured by Roche).
(§2) The numbers in the tables represent an average value ± standard error for the four cases. In addition, an asterisk * symbol means that the group has a significant difference at a significance level of 5% or less as compared to the control group according to Student-t test, and a triple asterisk *** symbol means that the group similarly has a significant difference at a significance level of 0.1% or less.

[3] = tested on: NGF; experiment: NGF content in rat tissues after intraperitoneal administration of xanthohumol (enzyme immunoassay); assay type: in vivo, rat (SD); conditions: excised 4 hours after administration on third day, average ± standard error
Protocol: as §1, §2

[4] = Water maze test in rats with ibotenic acid-induced learning and memory disorder; assay type: in vivo, rat (Wistar); conditions: forced oral 10 mg/kg once a day, average ± standard error, n=9
Protocol: Male Wistar rats were purchased from Japan SLC, Inc., and used for an experiment from 7-week old after preliminary rearing. Ibotenic acid was administered intracerebrally to cause a learning and memory disorder. Nine rats were used for each group, and administration was begun one week after the administration of ibotenic acid. Xanthohumol of Example 1 was suspended in distilled water, and the rats were subjected to forced oral administration with the suspension at a ratio of 10 mg of xanthohumol per 1 kg of body weight. A control group was administered with distilled water in the same manner as above. The rats were administered once a day for consecutive days. A water maze test was carried out on and after the seventh day from the beginning of the administration to evaluate ability of recognizing spaces and directions.
The water maze test method was carried out as follows. Water of about 22° C. was charged in a large-scaled water vessel. A platform was set at a height of 2 cm below the water level, and rats were made to enter into water. The rats in water swim around so as to escape from water and take refuge in the platform. The time period from entering into water to taking refuge in the platform was recorded. After taking the refuge, the rats were made to observe surrounding environments on the platform. […]

[5] = forced oral 10 mg/kg once a day
[6] = intraperitoneal 1 mg/kg once a day
[7] = intraperitoneal 3 mg/kg once a day
[8] = intraperitoneal 10 mg/kg once a day

## COc1cc(O)c(CC=C(C)C)c(O)c1C(=O)/C=C/c1ccc(O)cc1 [Xanthohumol, xanthohumol]
[1]
  cases of deaths: no cases of deaths are found
[2]; forced oral 3 mg/kg once a day
  NGF Content in Brain of Rat: 508.2 ± 95.1 pg/g tissue
  NGF Content in Submandibular Gland of Rat: 8.88 ± 0.98*** ng/g tissue
[2]; [5]
  NGF Content in Brain of Rat: 524.9 ± 200.7 pg/g tissue
  NGF Content in Submandibular Gland of Rat: 13.39 ± 0.65*** ng/g tissue
[3]; [6]
  NGF Content in Gastrocneminal Muscle of Rat: 48.0 ± 3.4 pg/g tissue
  NGF Content in Ischiadic Nerve of Rat: 386.4 ± 30.1* pg/g tissue
[3]; [7]
  NGF Content in Gastrocneminal Muscle of Rat: 53.9 ± 4.0 pg/g tissue
  NGF Content in Ischiadic Nerve of Rat: 351.6 ± 26.8 pg/g tissue
[3]; [8]
  NGF Content in Gastrocneminal Muscle of Rat: 56.8 ± 3.3 pg/g tissue
  NGF Content in Ischiadic Nerve of Rat: 445.7 ± 59.1 pg/g tissue
[4]; on and after seventh day
  Time Period from entering water to taking refuge in the platform, First Trial: 140.7 ± 14.7 s
[4]; second trial on next day
  Time Period from entering water to taking refuge in the platform, Second Trial: 71.3 ± 10.8 s
